Source: ChEMBL document CHEMBL1201862, “PubChem BioAssay data set” (2004)
Values belong to the molecule of their own block, whether it stands above or below them. Activity calls are given as the source filed them.

How the values were obtained:
Beta-galactosidase = Beta-galactosidase (Escherichia coli, UniProt Q8VNN2); assay: beta-galactosidase enzyme inhibitors and activators, dose response, artefact control for CCR6 antagonist project, biochemical, E. coli enzyme, set 3 (AID 504712); assay type: functional
Beta-galactosidase, sequence (Q8VNN2 whole entry): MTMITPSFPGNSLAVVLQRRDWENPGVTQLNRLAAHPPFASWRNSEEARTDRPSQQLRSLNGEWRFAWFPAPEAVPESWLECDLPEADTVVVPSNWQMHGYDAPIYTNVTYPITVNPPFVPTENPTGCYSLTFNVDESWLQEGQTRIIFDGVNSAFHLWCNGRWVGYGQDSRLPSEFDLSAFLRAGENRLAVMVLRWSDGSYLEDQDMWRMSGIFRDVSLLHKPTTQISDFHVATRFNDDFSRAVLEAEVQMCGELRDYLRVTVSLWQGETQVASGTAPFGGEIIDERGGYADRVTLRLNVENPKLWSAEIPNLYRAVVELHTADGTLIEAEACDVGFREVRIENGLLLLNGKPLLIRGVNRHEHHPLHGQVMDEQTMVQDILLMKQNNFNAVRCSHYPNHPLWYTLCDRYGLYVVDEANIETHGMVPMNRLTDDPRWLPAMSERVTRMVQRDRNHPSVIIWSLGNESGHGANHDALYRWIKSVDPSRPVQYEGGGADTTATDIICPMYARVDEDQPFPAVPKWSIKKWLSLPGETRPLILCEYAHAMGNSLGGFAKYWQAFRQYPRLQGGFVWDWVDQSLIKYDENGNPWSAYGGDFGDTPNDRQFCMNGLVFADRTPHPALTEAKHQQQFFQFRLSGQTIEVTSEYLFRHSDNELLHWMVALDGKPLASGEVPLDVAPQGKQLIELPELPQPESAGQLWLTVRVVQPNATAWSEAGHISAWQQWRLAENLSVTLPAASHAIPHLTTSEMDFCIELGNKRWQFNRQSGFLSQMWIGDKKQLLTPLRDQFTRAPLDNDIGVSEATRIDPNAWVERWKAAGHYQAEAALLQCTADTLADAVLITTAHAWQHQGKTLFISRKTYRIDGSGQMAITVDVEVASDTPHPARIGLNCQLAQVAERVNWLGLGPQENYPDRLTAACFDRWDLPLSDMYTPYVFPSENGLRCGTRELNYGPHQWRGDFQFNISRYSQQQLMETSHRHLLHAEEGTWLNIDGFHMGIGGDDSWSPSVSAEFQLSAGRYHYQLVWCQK

A-375 = assay: A375 melanoma cell viability reduction, dose response, counter-screen for MITF modulator project, cherry-pick samples, set 2 (AID 540335); assay type: functional, cell-based; settings: Homo sapiens
[1] = target: Serine/threonine-protein phosphatase (Homo sapiens, UniProt Q9BPW0); assay: PP5 phosphatase inhibitors, dose response, biochemical, fluorescence (AID 2395)
[2] = growth suppression of PTEN-null colon cells, dose response, cell-based, HCT116 PTEN knockout (AID 1047); assay type: functional;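 further: HCT116 colon tumor cells with PTEN knocked out; cells exposed to compound for 60 hours before readout; potency for loss of cell viability measured by luminescence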
[3] = target: Serine/threonine-protein phosphatase PP1-alpha catalytic subunit (Homo sapiens, UniProt P62136); assay: PP1 phosphatase inhibitors, dose response, biochemical, fluorescence (AID 2394)
[4] = growth suppression of beta-catenin-knockout colon cells, dose response, cell-based, HCT116, human colon tumor (AID 1045); assay type: functional;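 further: HCT116 colon tumor cells with beta catenin knocked out; cells exposed to compound for 60 hours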
[5] = target: T1, Microphthalmia-associated transcription factor (Homo sapiens, UniProt O75030); assay: TRPM1 promoter luciferase signal decrease, dose response, MITF inhibitor project, cell-based, SK-MEL-5, cherry-picked, set 3 (AID 493073); assay type: functional
T1 sequence (O75030 whole entry): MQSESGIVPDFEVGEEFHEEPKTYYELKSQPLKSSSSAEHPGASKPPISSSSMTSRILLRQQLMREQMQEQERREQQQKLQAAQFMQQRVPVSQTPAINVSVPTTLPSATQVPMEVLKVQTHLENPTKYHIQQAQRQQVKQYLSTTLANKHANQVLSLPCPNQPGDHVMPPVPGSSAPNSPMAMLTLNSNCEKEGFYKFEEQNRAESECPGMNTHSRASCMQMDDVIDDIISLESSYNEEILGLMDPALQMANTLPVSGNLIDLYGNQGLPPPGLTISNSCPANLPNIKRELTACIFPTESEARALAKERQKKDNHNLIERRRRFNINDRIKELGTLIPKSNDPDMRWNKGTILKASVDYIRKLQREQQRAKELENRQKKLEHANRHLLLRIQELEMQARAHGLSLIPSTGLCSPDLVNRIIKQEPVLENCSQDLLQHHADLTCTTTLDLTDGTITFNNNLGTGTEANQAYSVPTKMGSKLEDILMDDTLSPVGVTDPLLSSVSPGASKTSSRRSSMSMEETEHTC

[6] = target: T2, Heat shock factor protein 1 (Mus musculus, UniProt P38532); assay: HSF1 potentiators in luciferase reporter cells, confirmation, cell-based, NIH3T3, luminescence, dose retest (AID 435004); assay type: functional;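 further: stress induced by proteasome inhibitor MG132 added 30 min after compound; luciferase reporter driven by HSF1 response element in NIH3T3 cells; actives raise luminescence as potentiators of the MG132 stress response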
T2 sequence (P38532 whole entry): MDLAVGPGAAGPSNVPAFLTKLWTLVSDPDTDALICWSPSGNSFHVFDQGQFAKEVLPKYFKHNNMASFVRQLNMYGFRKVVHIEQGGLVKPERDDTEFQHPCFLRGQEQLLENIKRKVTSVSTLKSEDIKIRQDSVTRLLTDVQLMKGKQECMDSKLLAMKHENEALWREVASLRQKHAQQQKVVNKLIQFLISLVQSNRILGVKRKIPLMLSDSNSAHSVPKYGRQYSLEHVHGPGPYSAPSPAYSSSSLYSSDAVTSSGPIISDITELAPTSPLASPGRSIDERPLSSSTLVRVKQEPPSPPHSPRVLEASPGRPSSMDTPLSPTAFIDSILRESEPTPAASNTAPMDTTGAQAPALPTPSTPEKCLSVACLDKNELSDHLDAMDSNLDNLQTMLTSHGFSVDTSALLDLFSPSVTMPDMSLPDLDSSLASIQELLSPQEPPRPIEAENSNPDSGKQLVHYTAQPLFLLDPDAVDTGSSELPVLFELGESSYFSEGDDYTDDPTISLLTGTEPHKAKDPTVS

[7] = target: Solute carrier family 12 member 2/member 5 (Homo sapiens, UniProt P55011+Q9H2X9); assay: KCC2 and NKCC1 inhibition by rubidium flux, cell-based, NKCC1 counter-screen (AID 1734); assay type: functional, HEK293
[8] = target: Peroxisome proliferator-activated receptor gamma/Nuclear receptor corepressor 2 (Homo sapiens, UniProt P37231+Q9Y618); assay: Counterscreen for NR2E3 inverse agonists: TR-FRET-based biochemical high throughput dose response assay to identify inverse agonists of the interaction between peroxisome proliferator-activated receptor gamma (PPARg) and nuclear receptor co-repressor 2 (NCOR2).; assay type: functional
Peroxisome proliferator-activated receptor gamma/Nuclear receptor corepressor 2, sequence (P37231 whole entry): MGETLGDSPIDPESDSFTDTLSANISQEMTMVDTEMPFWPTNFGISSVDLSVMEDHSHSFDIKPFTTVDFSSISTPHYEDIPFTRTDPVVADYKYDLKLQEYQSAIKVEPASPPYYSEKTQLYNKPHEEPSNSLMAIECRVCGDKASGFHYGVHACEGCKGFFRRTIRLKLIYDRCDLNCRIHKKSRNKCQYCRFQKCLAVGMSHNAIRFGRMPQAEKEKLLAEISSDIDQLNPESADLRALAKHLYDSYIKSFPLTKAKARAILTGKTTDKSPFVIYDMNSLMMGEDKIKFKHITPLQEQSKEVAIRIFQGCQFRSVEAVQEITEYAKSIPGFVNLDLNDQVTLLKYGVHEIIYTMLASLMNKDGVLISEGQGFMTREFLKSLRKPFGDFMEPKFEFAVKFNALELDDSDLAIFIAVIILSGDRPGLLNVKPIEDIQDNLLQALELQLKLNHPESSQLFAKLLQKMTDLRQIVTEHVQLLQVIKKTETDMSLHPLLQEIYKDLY
Peroxisome proliferator-activated receptor gamma/Nuclear receptor corepressor 2, sequence (Q9Y618 whole entry): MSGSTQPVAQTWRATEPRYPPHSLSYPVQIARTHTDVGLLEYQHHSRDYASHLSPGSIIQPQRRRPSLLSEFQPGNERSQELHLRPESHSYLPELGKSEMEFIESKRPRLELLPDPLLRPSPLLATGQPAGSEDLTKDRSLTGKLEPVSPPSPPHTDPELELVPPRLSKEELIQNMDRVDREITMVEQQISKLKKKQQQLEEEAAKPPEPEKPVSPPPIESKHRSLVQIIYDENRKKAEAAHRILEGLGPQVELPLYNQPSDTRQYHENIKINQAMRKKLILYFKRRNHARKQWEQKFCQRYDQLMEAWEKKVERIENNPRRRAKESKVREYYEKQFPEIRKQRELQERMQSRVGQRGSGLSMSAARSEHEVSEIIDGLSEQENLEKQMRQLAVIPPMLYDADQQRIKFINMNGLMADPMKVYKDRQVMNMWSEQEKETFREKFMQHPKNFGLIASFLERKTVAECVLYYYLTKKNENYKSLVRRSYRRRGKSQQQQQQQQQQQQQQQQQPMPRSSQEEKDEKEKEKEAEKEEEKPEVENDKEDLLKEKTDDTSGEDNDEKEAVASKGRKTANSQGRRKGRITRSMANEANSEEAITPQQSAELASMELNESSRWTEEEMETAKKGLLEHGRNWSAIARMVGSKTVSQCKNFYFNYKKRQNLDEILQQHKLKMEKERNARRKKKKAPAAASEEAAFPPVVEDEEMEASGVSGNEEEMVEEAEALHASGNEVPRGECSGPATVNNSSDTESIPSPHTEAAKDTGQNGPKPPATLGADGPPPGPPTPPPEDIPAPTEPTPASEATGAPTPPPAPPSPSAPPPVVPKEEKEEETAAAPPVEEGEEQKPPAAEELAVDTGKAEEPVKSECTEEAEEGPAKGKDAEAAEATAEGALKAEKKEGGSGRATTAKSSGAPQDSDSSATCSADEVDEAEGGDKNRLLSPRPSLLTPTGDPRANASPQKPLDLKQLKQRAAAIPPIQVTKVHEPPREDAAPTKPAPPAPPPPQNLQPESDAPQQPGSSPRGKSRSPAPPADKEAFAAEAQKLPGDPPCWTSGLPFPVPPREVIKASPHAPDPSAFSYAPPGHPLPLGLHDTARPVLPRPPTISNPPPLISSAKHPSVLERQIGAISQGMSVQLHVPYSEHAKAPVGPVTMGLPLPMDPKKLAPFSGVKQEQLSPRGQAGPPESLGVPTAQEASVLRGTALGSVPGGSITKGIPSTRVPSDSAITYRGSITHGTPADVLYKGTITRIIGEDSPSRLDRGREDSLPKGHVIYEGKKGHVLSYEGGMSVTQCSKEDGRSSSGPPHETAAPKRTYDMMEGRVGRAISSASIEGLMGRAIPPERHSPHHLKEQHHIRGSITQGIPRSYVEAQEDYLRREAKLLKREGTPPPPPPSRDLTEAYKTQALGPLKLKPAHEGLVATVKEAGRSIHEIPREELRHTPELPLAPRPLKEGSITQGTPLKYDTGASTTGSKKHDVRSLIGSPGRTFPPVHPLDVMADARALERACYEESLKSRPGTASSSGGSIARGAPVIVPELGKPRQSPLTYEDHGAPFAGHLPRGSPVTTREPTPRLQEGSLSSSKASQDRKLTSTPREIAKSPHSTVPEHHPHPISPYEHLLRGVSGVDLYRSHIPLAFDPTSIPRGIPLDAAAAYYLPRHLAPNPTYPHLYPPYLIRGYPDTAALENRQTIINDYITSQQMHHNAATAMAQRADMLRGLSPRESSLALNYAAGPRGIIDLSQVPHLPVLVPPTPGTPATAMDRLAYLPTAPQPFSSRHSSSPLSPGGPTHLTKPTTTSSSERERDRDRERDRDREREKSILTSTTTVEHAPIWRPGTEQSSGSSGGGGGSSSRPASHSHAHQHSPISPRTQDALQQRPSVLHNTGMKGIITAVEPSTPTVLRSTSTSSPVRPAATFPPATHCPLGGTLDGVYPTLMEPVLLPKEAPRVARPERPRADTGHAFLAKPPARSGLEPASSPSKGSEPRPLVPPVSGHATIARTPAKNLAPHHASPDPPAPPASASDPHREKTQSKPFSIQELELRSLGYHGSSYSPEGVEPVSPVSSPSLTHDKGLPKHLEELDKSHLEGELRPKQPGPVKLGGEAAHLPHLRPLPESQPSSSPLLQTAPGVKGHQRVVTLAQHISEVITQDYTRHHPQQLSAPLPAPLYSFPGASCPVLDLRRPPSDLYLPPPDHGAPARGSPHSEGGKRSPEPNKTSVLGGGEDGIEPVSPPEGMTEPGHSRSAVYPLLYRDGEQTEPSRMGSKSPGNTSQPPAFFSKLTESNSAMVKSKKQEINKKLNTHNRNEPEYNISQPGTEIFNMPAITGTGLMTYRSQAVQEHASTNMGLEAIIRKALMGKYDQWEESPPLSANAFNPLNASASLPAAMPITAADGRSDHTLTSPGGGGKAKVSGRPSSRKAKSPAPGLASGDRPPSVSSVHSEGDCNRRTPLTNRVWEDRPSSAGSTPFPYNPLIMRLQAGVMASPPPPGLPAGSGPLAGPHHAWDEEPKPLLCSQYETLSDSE

[9] = target: Photoreceptor-specific nuclear receptor (Homo sapiens, UniProt Q9Y5X4); assay: NR2E3 inverse agonists, dose response, biochemical, TR-FRET (AID 463256); assay type: functional
Photoreceptor-specific nuclear receptor, sequence (Q9Y5X4 whole entry): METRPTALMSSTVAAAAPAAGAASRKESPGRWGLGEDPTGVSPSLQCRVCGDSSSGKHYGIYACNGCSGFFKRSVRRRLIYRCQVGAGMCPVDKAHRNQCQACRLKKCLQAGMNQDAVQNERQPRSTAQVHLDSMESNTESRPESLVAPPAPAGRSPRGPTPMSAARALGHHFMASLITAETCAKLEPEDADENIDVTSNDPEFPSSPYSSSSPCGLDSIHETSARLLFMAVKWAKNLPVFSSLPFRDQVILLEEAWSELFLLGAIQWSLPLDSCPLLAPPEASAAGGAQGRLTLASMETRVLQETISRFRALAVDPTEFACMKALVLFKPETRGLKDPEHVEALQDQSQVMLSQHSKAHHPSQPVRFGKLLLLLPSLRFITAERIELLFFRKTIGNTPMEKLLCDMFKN

[10] = target: 5-hydroxytryptamine receptor 1A (Homo sapiens, UniProt P08908); assay type: functional
[11] = target: Voltage-gated inwardly rectifying potassium channel KCNH2 (Homo sapiens, UniProt Q12809); assay: hERG protection from proarrhythmic block, potency, dose response, cell-based, thallium flux (AID 2121); assay type: ADME
NADPH oxidase 1 = NADPH oxidase 1 (Homo sapiens, UniProt Q9Y5S8); assay: Late-stage luminescence-based cell-based dose response assay to identify inhibitors of NADPH oxidase 1 (NOX1): Synthesized analogs.; assay type: functional
NADPH oxidase 1, sequence (Q9Y5S8 whole entry): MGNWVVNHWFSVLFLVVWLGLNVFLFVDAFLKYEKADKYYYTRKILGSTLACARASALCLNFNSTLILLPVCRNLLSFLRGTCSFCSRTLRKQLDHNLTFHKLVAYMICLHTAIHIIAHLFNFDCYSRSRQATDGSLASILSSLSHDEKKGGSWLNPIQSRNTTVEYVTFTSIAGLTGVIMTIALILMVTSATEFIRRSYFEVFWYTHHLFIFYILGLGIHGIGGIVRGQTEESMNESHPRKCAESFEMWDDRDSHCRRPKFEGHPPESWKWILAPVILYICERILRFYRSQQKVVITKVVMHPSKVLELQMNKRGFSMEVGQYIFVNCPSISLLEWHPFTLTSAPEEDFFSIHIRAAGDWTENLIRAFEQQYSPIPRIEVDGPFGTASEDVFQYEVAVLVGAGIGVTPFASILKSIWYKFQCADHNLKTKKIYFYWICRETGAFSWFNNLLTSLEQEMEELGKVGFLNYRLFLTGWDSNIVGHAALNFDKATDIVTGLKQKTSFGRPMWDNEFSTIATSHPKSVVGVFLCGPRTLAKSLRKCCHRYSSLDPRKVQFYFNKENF

14-3-3 protein gamma = 14-3-3 protein gamma (Homo sapiens, UniProt P61981); assay: modulators of 14-3-3 gamma client binding – dose response (AID 711); assay type: functional

IC50 [7]: 2.9 µM (active)
Structure (SMILES): O=C(CN1C(=O)NC2(CCCC2)C1=O)Nc1nc(-c2ccc(F)cc2)cs1

EC50 [10]: > 50 µM (not active)
Structure (SMILES): CCOC(=O)C1=C(C)NC(=O)NC1c1ccc(OCC(=O)Nc2ccccc2)c(OC)c1 (stereo not given)

IC50 (14-3-3 protein gamma): > 50 µM (not active)
Structure (SMILES): Cc1ccc(-n2c(=O)[nH]cc(C(=O)Nc3ccc4c(c3)OCCO4)c2=O)cc1C

Continued, molecule first:

Structure (SMILES): O=C1C(Cl)=C(N2CCN(c3ccccc3[N+](=O)[O-])CC2)C(=O)c2ccccc21
IC50 (Beta-galactosidase): > 66.6 µM (inactive) | AC50 (A-375): 15.6 µM (active) | IC50 [1]: 29.5 µM (not active) | EC50 [2]: 5.82 µM (active) | IC50 [3]: > 67 µM (not active) | EC50 [4]: 4.51 µM (active) | AC50 [5]: 3.59 µM (active) | EC50 [6]: 0.734 µM (inconclusive)

Structure (SMILES): O=C(NCc1ccccn1)c1cccn1-c1ncc(C(F)(F)F)cc1Cl
IC50 [8]: 9.96 µM (active) | IC50 [9]: 9.98 µM (active)

Structure (SMILES): O=C(NC(=S)NCCc1ccccc1)c1cccc(Cl)c1
EC50 [11]: 3.5 µM (active)

Structure (SMILES): CC(=NNc1ccc(C(=O)O)cc1)c1ccc2c(c1)Nc1ccccc1S2
IC50 (NADPH oxidase 1): 0.561 µM (active)
